In one data set the test system is P. falciparum. The data set can be described thus: Antimalarial activity against P. falciparum in vitro (Desjardins [3H]hypoxanthine incorporation). It is filed as cell-based. As to the method:
FIG. 1, the anti-malarial action of a precursor of thiazolium (designated by TE4c in the examples), and corresponding thiazolium (T4) as a function of the concentration of drug, according to the Desjardins test, (Desjardins R. E. et al, Antimicrob. Agents Chemother. 1979, 16, 710-718),
The IC50 measurements are determined vis-à-vis P. falciparum according to the Desjardins method in which the incorporation of [^3H] hypoxanthine (FIG. 1) into the nucleic acids is an indicator of cell viability. In each case, optical microscopy controls are carried out.
(§1) The IC50 is the concentration which inhibits by 50% the in vitro growth of P. falciparum: the LD50 is the lethal dose corresponding to the death of 50% of the mice and the ED50 is the effective dose for inhibiting by 50% the in vivo growth of P. vinckei according to a 4-day suppressive test, TI corresponds to the therapeutic index, TI=LD50 (semi-chronic)/ED50; ip: intraperitoneal administration; po: per os.

A short description of data set [1]: Tolerance in the mouse: LD50 after acute or semi-chronic administration. The format is in vivo. To be noted: for Oral absorption index (LD50 po/LD50 ip ratio, acute): acute administration; for In vivo LD50 (mg/kg) (mouse) acute / LD50: single dose; for In vivo LD50 (mg/kg) (mouse) semi-chronic / LD50 at 4 days: twice per day for 4 consecutive days; for LD50 / LD50 at 4 days: in vivo; for LD50 at 4 days: read-out: In vivo LD50 (mg/kg) (mouse) semi-chronic.
From the text: (§2) B) Antimalarial Activity in vivo Against a Mouse Infected by P. vinckei and Tolerance After Administration in Acute or Semi-chronic Conditions.
as §1

Data set [2] in a line: Pharmacokinetics / serum level in the mouse (ex vivo bio-test on P. falciparum). As for the experimental part:
The results of the pharmacokinetic parameters after administration by intraperitoneal or oral route in a mouse for a prodrug of disulphice type (TS3b) and a prodrug of thioester type (TE4c) are presented hereafter.
For determination of the serum level, bio-tests are used ex vivo: briefly, the medicament is administered to the animal, then repeated blood samples are taken. The sera are decomplemented for 30 minutes at 56° C. The active metabolite content is then determined by incubation of different concentrations (dichotomic dilution) of each serum, in the presence of suspensions of erythrocytes infected by P. falciparum, according to the DESJARDINS method with [^3H] hypoxanthine.
The results are expressed in IS50, which corresponds to the percentage of serum (containing an active metabolite) capable of inhibiting the growth of P. falciparum by 50%.
This value is then converted into a serum concentration, (usually expressed in ng/ml) by testing the active compound directly (without passing through the animal), on the same suspension infected by P. falciparum and by determining its IC50 value (in ng/ml) [serum level=IC50] (in ng/ml)×100/IS50 (in %)].
The results are expressed as the log (serum level of medicaments), as a function of time, which allows the evaluation of the half-time for distribution to the serum compartment t1/2(d); the half-time for elimination of the serum compartment (t1/2(e)); of C0), corresponding to the serum level originally extrapolated during the elimination phase; the AUC (which indicates the quantity of drug circulating in the blood stream); and the relative bio-availability in the oral route administration method, as against the intraperitoneal route method [AUC (po)/AUC (ip)] which is an indicator of the degree of absorption by oral route.

In data set [3] the test system is P. falciparum (FVO strain). Nature of the data set: Antimalarial activity against Plasmodium falciparum in the Aotus monkey. It is filed as in vivo. To be noted: Aotus monkeys. As to the method:
3 Aotus monkeys were infected with P. falciparum (FVO strain). When the blood parasitemia reached 1% (2 monkeys) or 6% (1 monkey), treatment by intramuscular route at a rate of 2 injections per day of TE4c (2mg/kg), for 8 days, was carried out.

The next data set concerns P. vinckei. Nature of the data set: animal or person. It is filed as in vivo. To be noted: mouse, 4-day suppressive test, TE4c in 50/50 PEG/castor oil; for ED50: Plasmodium vinckei, 96 h, read-out: In vivo ED50 (mg/kg) (P. vinckei).
From the text: as §2, §1

Where [4] appears, read: in vitro growth of P. falciparum, [3H]hypoxanthine incorporation, 48 hours test, read-out: IC50.
The mark [5] stands for this setting: ip, TE4c value corresponds to death of only 25% of the mice.
Where [6] appears, read: 3 mg/kg ip and 50 mg/kg po, both routes.
[7] abbreviates: ip 3 mg/kg TE4c, active metabolite considered to be T4.
Where [8] appears, read: oral 50 mg/kg TE4c, active metabolite considered to be T4.
Where [9] appears, read: oral route, higher dose series (150 mg/kg po).

These results are taken from patent publication US6972343B1, “Quaternary bis-ammonium salt precursors and their uses as prodrugs having an antiparasitic activity” (CNRS, priority 1999, dated 2005).

“And” between values parts separate entries of the source, which are not always exact repeats. Equal values may be shown once. Where a name gives a salt, the structure may show the parent alone. Read-outs that look alike come from different tables or passages of the source. Marks after values point to notes of the source that are not given here.

As a reminder, the IC50 is the concentration that gives 50% inhibition. On to `CCOC(=O)CC(=C(CCCCCCCCCCCCC(SC(=O)c1ccccc1)=C(CC(=O)OCC)N(C=O)Cc1ccccc1)SC(=O)c1ccccc1)N(C=O)Cc1ccccc1` [TE13, ethyl 3,18-(N,N′-diformyl-N,N′-dibenzyl)diamino-4,17-S-thiobenzoyleicosa-3,17-dienedioate], for which the IC50 in the data set with P. falciparum (setting [4]) is 650 nM.

Turning to “1,16-hexadecamethylenebis[4-methyl-5-(2-methoxyethyl)thiazolium] diiodide [T8]”, the IC50 in the data set on P. falciparum (setting [4]) worked out at 1.1 nM.

In the case of “2,15-(N,N′-diformyl-N,N′-dibenzyl)diamino-1,16-S-thiobenzoyl-hexadeca-1,15-diene [TE16]”, the 50% inhibitory concentration (IC50) in the data set on P. falciparum (setting [4]) was 12 nM.

For `Cc1c(CCO)sc[n+]1CCCCCCCCCCCC[n+]1csc(CCO)c1C.[Br-].[Br-]` [T3, 1,12-dodecamethylene bis [4-methyl-5-(2-hydroxyethyl)thiazolium] dibromide], the “Oral absorption index (LD50 po/LD50 ip ratio, acute)” value in data set [1] is reported as 70. In addition, the results for the “In vivo LD50 (mg/kg) (mouse) acute” value in data set [1] (ip) and in data set [1] (po) were 10 mg/kg and 700 mg/kg, respectively. In addition, the “In vivo LD50 (mg/kg) (mouse) semi-chronic” value in data set [1] (setting [5]) stood at 7.5 mg/kg; in data set [1] (po), 160 mg/kg. The half-maximal inhibitory concentration (IC50) with P. falciparum (setting [4]) was 2.25 nM.

For the molecule `CCN(CC)Cc1ccc(C(=O)SC(CCOC)=C(C)N(C=O)CCCCCCCCCCCCN(C=O)C(C)=C(CCOC)SC(=O)c2ccc(CN(CC)CC)cc2)cc1` [TE4f, N,N′-diformyl-N,N′-di[1-methyl-2-S-(p-diethylaminomethylphenylcarboxy)-thio-4-methoxybut-1-enyl]-1,12-diaminododecane], the IC50 in the data set on P. falciparum (setting [4]) worked out at 2.3 nM.

As for `COCCC(SC(=O)c1ccc(CN2CCOCC2)cc1)=C(C)N(C=O)CCCCCCCCCCCCN(C=O)C(C)=C(CCOC)SC(=O)c1ccc(CN2CCOCC2)cc1` [TE4g, N,N′-diformyl-N,N′-di[1-methyl-2-S-(p-morpholino-methylphenylcarboxy)-thio-4-methoxybut-1-enyl]-1,12-diaminododecane], the IC50 in the data set with P. falciparum (setting [4]) came to 2.3 nM.

By AUC is commonly meant the area under the concentration-time curve, a measure of exposure. Regarding `COCCC(SC(=O)c1ccccc1)=C(C)N(C=O)CCCCCCCCCCCCN(C=O)C(C)=C(CCOC)SC(=O)c1ccccc1` [TE4c, N,N′-diformyl-N,N′-di[1-methyl-2-S-thiobenzoyl-4-methoxybut-1-enyl]-1,12-diaminododecane], the “time of first serum level peak” value in data set [2] (setting [6]) was “in less than two hours”. Further, the “time of second serum level peak” value in data set [2] (setting [6]) is reported as “around 15 hours”; in data set [2] (higher doses 10 mg/kg ip and 150 mg/kg po), “around 23 hours”. The “relative bioavailability [AUC (po)/AUC (ip)]” value in data set [2] (50 mg/kg po vs 3 mg/kg ip) stood at 5%. Moreover, the AUC stood at 3300 ng·h/mL in data set [2] (setting [7]) and 2700 ng·h/mL in data set [2] (setting [8]). The C0 in data set [2] (setting [7]) came out at 180 ng/mL; in data set [2] (setting [8]), 130 ng/mL; in data set [2] (setting [9]), 1000 ng/mL. In addition, the t1/2 in data set [2] (setting [7]) is 12 h; in data set [2] (setting [9]) it was “around 10 hours”. Also, the “recurrence of parasitemia after treatment” value in data set [3] (6 months following the treatment) is “no further occurrence was observed in the 6 months following the treatment”. Moreover, in data set [3] (parasitemia 1% or 6% at start, im 2 mg/kg, 2 injections per day, 8 days), the “blood parasitemia after treatment” value is “completely eliminated”. In addition, the “Oral absorption index (LD50 po/LD50 ip ratio, acute)” value in data set [1] is “˜10”. Besides, the figures for the “In vivo LD50 (mg/kg) (mouse) acute” value in data set [1] (ip) and in data set [1] (po) were 100 mg/kg and “˜1000 mg/kg”, respectively. Also, the “In vivo LD50 (mg/kg) (mouse) semi-chronic” value is on record as “≧30^d mg/kg” in data set [1] (setting [5]) and “˜300 mg/kg” in data set [1] (po). Further, the IC50 in the data set with P. falciparum (setting [4]) stood at 2 nM. Also, the “In vivo ED50 (mg/kg) (P. vinckei)” value with P. vinckei (ip) turned out to be 1 mg/kg.

Turning to `Cc1csc[n+]1CCCCCCCCCCCC[n+]1cscc1C` [T6, 1,12-dodecamethylenebis(4-methylthiazolium) diiodide], in the data set with P. falciparum (setting [4]), the IC50 came out at 3 nM.

Consider “N,N′-diformyl-N,N′-di[1-methyl-2-S-(p-phthaloyl)-thio-4-methoxybut-1-enyl]-1,12-diaminododecane [TE4j]”, for which, in the data set with P. falciparum (setting [4]), the IC50 was 2.7 nM.

For `Cc1c(CCOCCCCCCOCCc2sc[n+](Cc3ccccc3)c2C)sc[n+]1Cc1ccccc1` [T10, 3,10-dioxadodecamethylenebis[5-(1-benzyl, 4-methyl)-thiazolium] dibromide], in the data set on P. falciparum (setting [4]), the IC50 is 2.5 nM.

Consider `CC(Cl)CCCN(C)CCCCCCCCCCCCCCCCN(C)CCCC(C)Cl` (stereo not shown) [P2, N,N′-dimethyl-N,N′-(4-chloropentyl)-1,16-hexadecanediamine hydrochloride], for which the IC50 in the data set on P. falciparum (setting [4]) turned out to be 0.5 nM.

With “1,12-decamethylene bis[4-methyl-5-(2-methoxyethyl)thiazolium] diiodide [T4]”, in the data set with P. falciparum (setting [4]), the IC50 was determined as 0.65 nM.

“N,N′-dimethyl-N,N′-(5-chloropentyl)-1,16-hexadecane diamine hydrochloride [P1]”: in the data set on P. falciparum (setting [4]), the IC50 was determined as 1.7 nM.

With `COc1ccc(C(=O)SC(CCOCCCCCCOCCC(SC(=O)c2ccc(OC)cc2)=C(C)N(C=O)Cc2ccccc2)=C(C)N(C=O)Cc2ccccc2)cc1` [TE10, 2,17-(N,N′-diformyl-N,N′-dibenzyl)diamino-3,16-S-thio-p-methoxybenzoyl-6,13-dioxaoctadeca-2,16-diene], the IC50 in the data set with P. falciparum (setting [4]) was 12 nM.

For the molecule `C[N+]1(CCCCCCCCCCCCCCCC[N+]2(C)CCCC2)CCCC1` [G25, 1,16-hexadecamethylene bis-(N-methylpyrrolidinium), reference compound], the “Oral absorption index (LD50 po/LD50 ip ratio, acute)” value in data set [1] was 87. Besides, the values for the LD50 in data set [1] (ip) and in data set [1] (po) were 1.27 mg/kg and 130 mg/kg, respectively. For the same molecule, the LD50 at 4 days turned out to be 1.15 mg/kg in data set [1] (setting [5]) and 65 mg/kg in data set [1] (po). Moreover, the IC50 in the data set with P. falciparum (Plasmodium falciparum) came out at 0.6 nM. In addition, the ED50 with P. vinckei (ip) was 0.22 mg/kg; with P. vinckei (po), approximately 15 mg/kg.

With `c1ccc(Cc2csc[n+]2CCCCCCCCCCCC[n+]2cscc2Cc2ccccc2)cc1` [T16, dodecamethylenebis[4-(1-benzyl)-thiazolium] dibromide], the IC50 in the data set on P. falciparum (setting [4]) was 10 nM.

Regarding `CC(=C1CCOC(=O)S1)N(C=O)CCCCCCCCCCCCN(C=O)C(C)=C1CCOC(=O)S1` [TE3, N,N′-diformyl-N,N′-di[1(2-oxo-4,5-dihydro-1,3-oxathian-4-ylidene)ethyl]1,12-diaminododecane], the IC50 in the data set with P. falciparum (setting [4]) is 3 nM and 2.6 nM.

As to `CCOC(=O)CCc1c(CCCCCCCCCCCCc2sc[n+](Cc3ccccc3)c2CCC(=O)OCC)sc[n+]1Cc1ccccc1` [T13, dodecamethylenebis[5-(1-benzyl-4-ethoxycarbonylethyl)-thiazolium] dibromide], the IC50 with P. falciparum (setting [4]) was 250 nM.
